Assay results as given in patent publication US20220226349A1, “TOPICAL NEUROSTEROID FORMULATIONS” (Arizona Board of Regents on Behalf of the University of …, priority 2019, published 2022).
In brackets after ≈: the same amount, converted by molar mass. Where two headings read alike, the source gives them in different places.

Experiments:
[1] = system: RPMI 2650 (human nasal) cell line; experiment: In vitro cell viability (resazurin assay) after treatment of Allo, RPMI 2650; type: cell-based; conditions: RPMI 2650, Allo 0.001-10 μM, 72 h
Procedure: (§1) Cell viability was evaluated in human skin (HaCaT)cell line by performing a resazurin assay after the treatment of Allo. Resazurin is a cell permeable redox indicator, and viable cells with active metabolism can reduce resazurin into resorufin, which is fluorescent (Riss et al., Cell Viability Assays, in Assay Guidance Manual, 2016). The HaCaT cells were grown in optimized Dubelco's Modified Eagle's medium (DMEM) (containing 2 mM of L-glutamine, 2 mM of sodium pyruvate, 4500 mg/L of glucose, and 1500 mg/L of sodium bicarbonate) supplemented with 10% fetal bovine serum (FBS). The TR 146 cells were grown in Ham's F12 medium supplemented with 10% FBS, 1% penicillin-streptomycin, and 0.2% L-Glutamine The RPMI 2650 cells were grown in Eagle's Minimum Essential medium (EMEM) supplemented with 10% FBS, 1% penicillin-streptomycin, and 0.2% amphotericin […]. Cells were plated in a 96-well plate at a density of 5,000 cells per each well (100 μl) and incubated at 37° C. and 5% CO2 for 48 h. Allo was prepared in cell culture media with the addition of 1% (v/v) ethanol to aid Allo solubility. The final concentration range of Allo treated to the cells was 0.001-10 μM. […] The cell viability was measured using Synergy H1 Multi-Mode Reader (BioTek Instruments Inc., Winooski, Vt.) at the excitation wavelength of 544 nm and emission wavelength of 590 nm.

[2] = Saturated solubility of Allo in oils; type: physicochemical; conditions: oil or lipid, thermodynamic from solid, room temperature, mean ± SD, n=3
Procedure: The solubility of Allo was determined in CAPMUL® MCM EP/NF (monodiglyceride of medium chain fatty acids, commercially available from Abitec Corporation (Columbus, Ohio), CAS Number 91744-32-0, or 26402-22-2, and 26402-26-6), isopropyl myristate, and oleic acid, by adding an excess amount of Allo to 1 mL of each oil in a glass vial. The vial was rocked for 72 h at room temperature. The excessive amount of Allo was filtered through a syringe membrane filter (0.2 μm). The amount of Allo dissolved in each oil was determined using HPLC.
An HPLC analytical method was developed by employing the SHIMADZU LC2010A HT for in vitro and ex vivo evaluation of Allo from microemulsions (MEs). Chromatographic separation was achieved using a PHENOMENEX® KINETEX® Phenyl-hexyl 2.6 μm reverse-phase (150×4.6 mm) column. The mobile phase was a mixture of 0.1% acetic acid in water and methanol, 20:80 (v/v) and flowed at 0.4 ml/min for 15 min The injection volume was 10 μl and the UV detection wavelength was 206 nm. A standard curve was constructed at the concentration range of 7.8-1,000

[3] = Saturated solubility of Allo in receptor media; type: physicochemical; conditions: aqueous with cosolvent or surfactant or cyclodextrin, thermodynamic from solid, 32° C., n=3, read-out: Solubility of Allo in receptor medium
Procedure: To select a receptor medium placed in the receptor compartment of the Franz chamber, the saturated solubilities of Allo in various media were determined. PBS at pH 7.4 has been commonly used to mimic the physiological condition. […] An excessive amount of Allo was added to 1 ml of the following media: (1) 10% (w/v) 2-hydroxypropyl-β-cyclodextrin (HβCD), (2) 40% (v/v) isopropyl alcohol (IPA), (3) 30% (v/v) CREMOPHOR EL®, and (4) 20% (v/v) IPA and 25% (v/v) CREMOPHOR EL®. The solutions were kept under constant magnetic stirring at 600 rpm for 24 h and placed in an incubator at 32° C. After 24 h, the excessive amount of Allo was filtered through a 0.2 μm syringe membrane and the filtered solution was injected into the HPLC for analysis.

[4] = system: HaCaT (human skin) cell line; experiment: In vitro cell viability (resazurin assay) after treatment of Allo, HaCaT; type: cell-based; conditions: 72 h
Procedure: as §1

[5] = system: TR 146 (human buccal) cell line; experiment: In vitro cell viability (resazurin assay) after treatment of Allo, TR 146; type: cell-based; conditions: TR 146, Allo 0.001-10 μM, 72 h
Procedure: as §1

CC(=O)[C@H]1CC[C@H]2[C@@H]3CC[C@H]4C[C@H](O)CC[C@]4(C)[C@H]3CC[C@]12C [Allo, 3α-hydroxy-5α-pregnan-20-one]
Viability percent range [1]: 107.32-113.60%
solubility at 72 h ([2]; in CAPMUL® MCM): 28400 ± 1920 µg/mL (≈ 89 mM)
solubility at 72 h ([2]; in isopropyl myristate): 8880 ± 170 µg/mL (≈ 27.9 mM)
solubility at 72 h ([2]; in oleic acid): 17800 ± 3970 µg/mL (≈ 55.9 mM)
solubility at 24 h ([3]; PBS (pH 7.4) containing 10% (w/v) HβCD): 3450 ± 30 µg/mL (≈ 10.8 mM)
solubility at 24 h ([3]; PBS (pH 7.4) containing 20% (v/v) IPA and 25% (v/v) CREMOPHOR EL®): 3350 ± 120 µg/mL (≈ 10.5 mM)
solubility at 24 h ([3]; PBS (pH 7.4) containing 30% (v/v) CREMOPHOR EL®): 1990 ± 170 µg/mL (≈ 6.25 mM)
solubility at 24 h ([3]; PBS (pH 7.4) containing 40% (v/v) IPA): 1130 ± 130 µg/mL (≈ 3.55 mM)
Viability percent range ([4]; HaCaT, Allo 0.001-10 μM): 84.16-102.70%
Viability compared to the control group ([4]; stated for the tested cell lines (HaCaT, TR 146, RPMI 2650), control without Allo): No significant decrease in viability
Viability percent range [5]: 93.89-112.44%
